Literature values in patent US20120028902A1, “PEPTIDE AVAILABILITY” (priority 2008, published 2012).

## CC[C@H](C)[C@H](N)C(=O)N1CCC[C@H]1C(=O)N1CCC[C@H]1C(=O)O [IPP, isoleucine-proline-proline]
Yoghurt drink consumed with breakfast, versus fasted state
  Further increase of plasma IPP AUC when consumed with the meal: 30%
Yoghurt drink drunk in overnight fasted state 30 min prior to breakfast
  Increase of plasma IPP level (area under the concentration vs. time curve) compared to a control drink: more than two-fold
